# Measured values published in ChEMBL document CHEMBL3351629, “Modulators of the nuclear receptor retinoic acid receptor-related orphan receptor-γ (RORγ or RORc)” (J Med Chem, 2014).
# Columns and labels:
# [1] = target: T1, Nuclear receptor ROR-gamma (Homo sapiens, UniProt P51449); test: Binding affinity to RORgamma (unknown origin)
# T1 sequence (P51449 whole entry): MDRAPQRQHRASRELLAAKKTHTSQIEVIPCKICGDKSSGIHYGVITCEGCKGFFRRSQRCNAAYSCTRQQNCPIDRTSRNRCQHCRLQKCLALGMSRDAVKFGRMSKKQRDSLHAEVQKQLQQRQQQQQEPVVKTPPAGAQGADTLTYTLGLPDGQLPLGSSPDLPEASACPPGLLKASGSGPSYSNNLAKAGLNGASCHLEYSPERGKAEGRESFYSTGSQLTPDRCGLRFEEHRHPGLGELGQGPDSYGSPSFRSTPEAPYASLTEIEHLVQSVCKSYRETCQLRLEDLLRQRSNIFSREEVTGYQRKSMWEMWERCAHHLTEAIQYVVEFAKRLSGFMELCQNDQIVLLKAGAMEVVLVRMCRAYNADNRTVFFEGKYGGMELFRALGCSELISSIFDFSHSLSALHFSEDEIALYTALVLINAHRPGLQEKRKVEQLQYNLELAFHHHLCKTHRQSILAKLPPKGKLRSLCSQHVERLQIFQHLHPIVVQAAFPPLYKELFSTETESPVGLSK
# [2] = target: T2, Nuclear receptor ROR-gamma (Mus musculus) (UniProt P51450); test: Activity at RoRc in mouse CD4+ T cells assessed as inhibition of IL-17 production at 10 uM; assay type: cell-based; conditions: T-cell
# T2 sequence (whole entry): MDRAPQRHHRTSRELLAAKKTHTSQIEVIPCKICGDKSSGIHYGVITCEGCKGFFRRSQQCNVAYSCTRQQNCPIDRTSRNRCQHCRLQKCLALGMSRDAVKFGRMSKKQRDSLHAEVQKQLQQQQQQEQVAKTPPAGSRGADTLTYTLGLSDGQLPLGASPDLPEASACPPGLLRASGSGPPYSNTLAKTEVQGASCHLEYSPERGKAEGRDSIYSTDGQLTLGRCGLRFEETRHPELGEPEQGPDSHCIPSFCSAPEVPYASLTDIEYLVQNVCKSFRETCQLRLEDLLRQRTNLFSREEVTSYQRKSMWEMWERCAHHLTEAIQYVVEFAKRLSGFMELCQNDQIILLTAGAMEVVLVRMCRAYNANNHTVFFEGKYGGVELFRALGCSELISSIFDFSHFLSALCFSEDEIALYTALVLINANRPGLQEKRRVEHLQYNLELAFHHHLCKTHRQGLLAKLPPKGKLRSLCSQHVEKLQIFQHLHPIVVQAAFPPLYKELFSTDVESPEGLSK
# [3] = tested on: Mus musculus; test: Decrease in serum IL-17a level in mouse at 30 mg/kg in presence of anti-CD3 antibody; assay type: functional
# [4] = tested on: Mus musculus; test: Decrease in serum IL-17a level in mouse at 300 mg/kg in presence of anti-CD3 antibody; assay type: functional
# [5] = tested on: Mus musculus; test: Decrease in serum IL-17a level in mouse at 100 mg/kg in presence of anti-CD3 antibody; assay type: functional
compound,measurement,setting,value
C[C@H]1O[C@@H](O[C@H]2[C@@H](O)C[C@H](O[C@H]3[C@@H](O)C[C@H](O[C@H]4CC[C@@]5(C)[C@H](CC[C@@H]6[C@@H]5C[C@@H](O)[C@]5(C)[C@@H]([C@@H](CO)CCO)CC[C@]65O)C4)O[C@@H]3C)O[C@@H]2C)C[C@H](O)[C@@H]1O,IC50,[1],12 µM
CCn1c2ccccc2c2cc(NC(=O)CC(C)CC(=O)Nc3ccc(C#N)c(Cl)c3)ccc21 (stereo not given),inhibition,[2],96%
same,inhibition in vivo at 30 mg/kg,[3],10%
same,inhibition in vivo at 300 mg/kg,[4],53%
same,inhibition in vivo at 100 mg/kg,[5],25%
